{"source": "patent US20170190744A1", "about": "(Vicuron Pharmaceuticals, Inc., priority 2015, published 2017)", "key": {"[1]": {"assay": "Plasma pharmacokinetics in thigh-infected neutropenic mice", "details": "2.5-80 mg/kg intraperitoneal", "procedure": "Neutropenia in this and all other studies was produced by injections of cyclophosphamide, 150 mg/kg 4 days prior to study, 100 mg/kg 1 day prior to study and 100 mg/kg every 48 h after start of infection until end of study. […] Doses of 2.5, 5, 10, 20, 40, and 80 mg/kg were studied. Drug was administered by intraperitoneal injection of 0.2 ml volume. Blood was removed from groups of three mice by retroorbital aspiration into heparinized capillary tubes at 0.5, 1, 2, 4, 6, 24, 48, 72, and 96 hours after dosing. […] AUC was calculated by the trapezoidal rule from mean concentrations."}, "S. aureus [2]": {"test_system": "S. aureus", "assay": "MIC in broth, serum, serum ultrafiltrate and albumin (protein binding)", "format": "cell-based", "details": "Staphylococcus aureus", "description": "This degree of binding was considered in subsequent pharmacodynamic analyses. The degree of binding in human serum would be estimated to be 96%."}, "S. aureus [3]": {"test_system": "S. aureus", "assay": "Murine thigh-infection model", "format": "in vivo, mice", "details": "for 1 Log Kill mg/kg/72 h / 2 Log Kill mg/kg/72 h: q 72 h regimen; for 1 log kill dose: SA29213, total dose over 6 days", "method": "Each point represents the mean of 4 thighs. Five dose levels, ranging 16-fold were used.\nFive different doses (two-fold increases) were used. Study against S. aureus utilized total dose (mg/kg/6 d) levels ranging from 30 to 480 mg/kg/6 d. […] Each point represents the mean of 4 thighs.\nEach point represents the mean of four thighs."}, "[4]": {"test_system": "skin and soft tissue infections (SSTI)", "assay": "Phase II trial in deep skin and soft tissue infections: clinical response", "format": "in vivo, human", "details": "for clinical success rate at FU: clinically-evaluable population; for clinical success rate, deep or complicated SSTI at baseline: exploratory subanalysis", "method": "This randomized, controlled study evaluated the safety and efficacy of two dose regimens of dalbavancin.\nThere were 62 patients randomized into the study; all received at least one dose of study medication. Four study populations were evaluated for safety and efficacy and were defined as follows: The intent-to-treat (ITT) population included all patients who received at least one dose of study drug (all randomized study subjects).\n(§1) The effectiveness of the three treatment regimens was determined by assessing the patients' clinical response and the documented or presumed microbiological responses. The primary efficacy endpoint was clinical response at the follow-up visit for the clinically evaluable population. Clinical response, for both EOT and FU visits, was categorized as success (cure or improvement) or failure (including indeterminate results). Patients classified as successes must not have received additional systemic antibacterial treatment for their infection. Failure was defined as persistence of one or more local or systemic signs and symptoms of SSTI such that treatment with new or additional systemic antibacterial agents was required for the SSTI."}, "MRSA Staph. aureus 3817": {"test_system": "MRSA Staph. aureus 3817", "assay": "Staph. aureus murine septicaemia, ED50", "format": "in vivo", "details": "Staphylococcus aureus, sc, 10 min"}, "[5]": {"assay": "Pharmacokinetics in hepatic impairment (VER001-12)", "format": "in vivo, human", "details": "1000 mg Day 1 and 500 mg Day 8, Mean (±SD)", "source_text": "The study enrolled otherwise healthy subjects with mild, moderate, or severe hepatic impairment (Child-Pugh scores 5 to 6, 7 to 9, and 10 to 15, respectively) and matched control subjects with normal hepatic function."}, "human hepatic microsomes": {"test_system": "human hepatic microsomes", "format": "in vitro ADME"}, "[6]": {"test_system": "methicillin-resistant S. aureus (MRSA)", "assay": "Phase II SSTI trial: response in patients with MRSA (MITT)", "format": "in vivo, human", "details": "MITT population", "method": "as §1\nMicrobiological outcome, a secondary efficacy variable, was assessed in the subpopulation of patients who had microbiologically documented SSTI (i.e., at least one identified baseline pathogen). A microbiologic response was assessed for each Gram-positive pathogen identified at baseline (i.e., eradication, presumed eradication, persistence, presumed persistence). For patients for whom follow-up cultures were not performed, the microbiologic responses for baseline pathogens were presumed on the basis of the clinical response. Microbiologic response by patient at the EOT and FU visits was graded as success (i.e., all Gram-positive organisms eradicated or presumed eradicated) or failure (i.e., at least one Gram-positive organism persisted or presumed to have persisted, multiple pathogens with partial eradication). At both the EOT and FU visits, colonization and superinfection were assessed. At the FU visit, a patient's bacteriological response could also include recurrence."}}, "note": "Several values for one entry are separate records, joined by “and”; a condition that tells them apart may be missing. Equal entries are not always repeated. Where two headings read alike, the source gives them in different places.", "data": [{"molecule": "CN[C@H]1C(=O)N[C@@H]2Cc3ccc(cc3)Oc3cc4cc(c3O[C@@H]3O[C@H](C(=O)O)[C@@H](O)[C@H](O)[C@H]3NC(=O)CCCCCCCCC(C)C)Oc3ccc(cc3Cl)[C@@H](O)[C@@H]3NC(=O)[C@H](NC(=O)[C@@H]4NC(=O)[C@@H](NC2=O)c2cc(cc(O)c2Cl)Oc2cc1ccc2O)c1ccc(O)c(c1)-c1c(O[C@H]2O[C@H](CO)[C@@H](O)[C@H](O)[C@@H]2O)cc(O)cc1[C@@H](C(=O)NCCCN(C)C)NC3=O", "note": "[Dalbavancin]", "values": [{"measurement": "half-life", "setting": "[1]", "value": "7.6 to 13.1", "unit": "h"}, {"measurement": "MIC", "setting": "S. aureus [2]; MRSA, read-out: MIC 95% Human Albumin, S. aureus strain MRSA", "value": 8, "unit": "µg/mL"}, {"measurement": "MIC", "setting": "S. aureus [2]; MRSA, read-out: MIC 95% Human Serum, S. aureus strain MRSA", "value": 8, "unit": "µg/mL"}, {"measurement": "MIC", "setting": "S. aureus [2]; MRSA, read-out: MIC 95% Mouse Serum Ultrafiltrate, S. aureus strain MRSA", "value": 0.5, "unit": "µg/mL"}, {"measurement": "MIC", "setting": "S. aureus [2]; MRSA, read-out: MIC 95% Mouse Serum, S. aureus strain MRSA", "value": 32, "unit": "µg/mL"}, {"measurement": "MIC", "setting": "S. aureus [2]; human serum and albumin", "value": 8, "unit": "µg/mL"}, {"measurement": "MIC", "setting": "S. aureus [2]; mouse serum ultrafiltrate", "value": 0.5, "unit": "µg/mL"}, {"measurement": "MIC", "setting": "S. aureus [2]; read-out: MIC 95% Human Albumin, S. aureus strain 25923", "value": 8, "unit": "µg/mL"}, {"measurement": "MIC", "setting": "S. aureus [2]; read-out: MIC 95% Human Serum, S. aureus strain 25923", "value": 8, "unit": "µg/mL"}, {"measurement": "MIC", "setting": "S. aureus [2]; read-out: MIC 95% Mouse Serum Ultrafiltrate, S. aureus strain 25923", "value": 0.5, "unit": "µg/mL"}, {"measurement": "MIC", "setting": "S. aureus [2]; read-out: MIC 95% Mouse Serum, S. aureus strain 25923", "value": 32, "unit": "µg/mL"}, {"measurement": "MIC", "setting": "S. aureus [2]; read-out: MIC (arithmetic), 95% mouse serum", "value": 32, "unit": "µg/mL"}, {"measurement": "1 Log Kill mg/kg/72 h", "setting": "S. aureus [3]; MRSA, 6 days of therapy", "value": 62, "unit": "mg/kg/72 h"}, {"measurement": "2 Log Kill mg/kg/72 h", "setting": "S. aureus [3]; MRSA, 6 days of therapy", "value": 85, "unit": "mg/kg/72 h"}, {"measurement": "1 Log Kill mg/kg/72 h", "setting": "S. aureus [3]; Mean ± SD of S. aureus strains", "value": "94 ± 46", "unit": "mg/kg/72 h"}, {"measurement": "2 Log Kill mg/kg/72 h", "setting": "S. aureus [3]; Mean ± SD of S. aureus strains", "value": "120 ± 54", "unit": "mg/kg/72 h"}, {"measurement": "1 log kill dose", "setting": "S. aureus [3]; q 36 h", "value": 36, "unit": "mg/kg"}, {"measurement": "1 log kill dose", "setting": "S. aureus [3]; q 72 h", "value": 31, "unit": "mg/kg"}, {"measurement": "1 Log Kill mg/kg/72 h", "setting": "S. aureus [3]; SA33591, 6 days of therapy", "value": 93, "unit": "mg/kg/72 h"}, {"measurement": "1 Log Kill mg/kg/72 h", "setting": "S. aureus [3]; SA307109, 6 days of therapy", "value": 34, "unit": "mg/kg/72 h"}, {"measurement": "2 Log Kill mg/kg/72 h", "setting": "S. aureus [3]; SA307109, 6 days of therapy", "value": 37, "unit": "mg/kg/72 h"}, {"measurement": "1 Log Kill mg/kg/72 h", "setting": "S. aureus [3]; SA Smith, 6 days of therapy", "value": 95, "unit": "mg/kg/72 h"}, {"measurement": "drop in cfu over the 6 day study", "setting": "S. aureus [3]; all strains", "value": "> 4", "unit": "log10"}, {"measurement": "free drug AUC/MIC over the 6 days of therapy required for efficacy", "setting": "S. aureus [3]; net static effect, 1 or 2 log kill", "value": "~1000"}, {"measurement": "clinical success rate at FU", "setting": "[4]; single-dose dalbavancin (1100 mg IV day 1)", "value": 61.5, "unit": "%"}, {"measurement": "clinical success rate at FU", "setting": "[4]; two-dose dalbavancin (1 g IV day 1, 500 mg IV day 8)", "value": "94.1% and 94%"}, {"measurement": "clinical success rate, deep or complicated SSTI at baseline", "setting": "[4]; single-dose dalbavancin", "value": 58.3, "unit": "%"}, {"measurement": "clinical success rate, deep or complicated SSTI at baseline", "setting": "[4]; two-dose dalbavancin", "value": 93.8, "unit": "%"}, {"measurement": "ED50", "setting": "MRSA Staph. aureus 3817", "value": 0.7, "unit": "mg/kg"}, {"measurement": "t1/2", "setting": "[5]; Mild Hepatic Impairment", "value": "323 (27) h"}, {"measurement": "t1/2", "setting": "[5]; Moderate Hepatic Impairment", "value": "320 (24) h"}, {"measurement": "t1/2", "setting": "[5]; Normal Hepatic Function", "value": "321 (24) h"}, {"measurement": "t1/2", "setting": "[5]; Severe Hepatic Impairment", "value": "322 (68) h"}, {"measurement": "effect on metabolism of marker substrates", "setting": "human hepatic microsomes", "value": "did not affect the metabolism of marker substrates"}, {"measurement": "clinical success rate at FU in patients with MRSA", "setting": "[6]; single-dose dalbavancin", "value": 50, "unit": "%"}, {"measurement": "rate of eradication for MRSA", "setting": "[6]; single-dose dalbavancin", "value": 50, "unit": "%"}, {"measurement": "clinical success rate at FU in patients with MRSA", "setting": "[6]; two-dose dalbavancin", "value": 80, "unit": "%"}, {"measurement": "rate of eradication for MRSA", "setting": "[6]; two-dose dalbavancin", "value": 80, "unit": "%"}]}]}
